In patent US12275729B2 (Merck Sharp & Dohme LLC, priority 2017, dated 2025):

Biological target: IDO1 (Homo sapiens, UniProt P14902)
Test: IDO1 Cellular Assay in HeLa Cells Stimulated with IFNγ
Format: cell-based
Details: about 48 hours, read-out: Hela IC50

IDO1, sequence (P14902 whole entry): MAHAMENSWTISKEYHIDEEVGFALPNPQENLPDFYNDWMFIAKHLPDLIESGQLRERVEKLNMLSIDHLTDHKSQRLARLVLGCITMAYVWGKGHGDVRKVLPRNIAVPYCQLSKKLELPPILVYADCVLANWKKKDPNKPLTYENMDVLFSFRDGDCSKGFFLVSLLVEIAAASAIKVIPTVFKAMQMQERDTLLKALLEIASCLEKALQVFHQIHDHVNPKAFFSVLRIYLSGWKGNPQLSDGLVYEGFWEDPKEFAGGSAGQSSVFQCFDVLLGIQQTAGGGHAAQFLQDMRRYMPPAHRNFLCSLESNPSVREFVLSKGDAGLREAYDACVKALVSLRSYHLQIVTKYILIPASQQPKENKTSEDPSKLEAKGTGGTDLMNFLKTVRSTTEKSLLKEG

Row | Structure (SMILES) | IC50 [nM]
1 | Cc1nc(C(=O)N2CCCc3cc([C@@H](C)C(=O)Nc4ccc(F)cn4)ccc32)no1 [Example 64, (2R)-N-(5-fluoropyridin-2-yl)-2-[1-(5-methyl-1,2,4-oxadiazole-3-carbonyl)-1,2,3,4-tetrahydroquinolin-6-yl]propanamide] | 44.4
2 | C[C@H](NC(=O)c1ccc(F)cn1)c1ccc2c(c1)CCCN2C(=O)C1(F)CC1 (single isomer, unassigned) [Example 34] | 800
3 | CC(C)CC(=O)N1CCCc2cc(CNC(=O)c3ccc(C(F)(F)F)cc3)ccc21 [Example 7, N-{[1-(3-methylbutanoyl)-1,2,3,4-tetrahydroquinolin-6-yl]methyl}-4-(trifluoromethyl)benzamide] | 42.5
4 | Cc1cc(C(=O)NCc2ccc3c(c2)CCCN3C(=O)c2cccc(Cl)c2)on1 [Example 20, N-{[1-(3-chlorobenzene-1-carbonyl)-1,2,3,4-tetrahydroquinolin-6-yl]methyl}-3-methyl-1,2-oxazole-5-carboxamide] | 59.6
5 | C[C@H](C(=O)Nc1ccc(F)cc1)c1ccc2c(c1)CCCN2C(=O)CC(F)(F)F [Example 91, (2S)-N-(4-fluorophenyl)-2-[1-(3,3,3-trifluoropropanoyl)-1,2,3,4-tetrahydroquinolin-6-yl]propanamide] | 105
6 | C[C@@H](C(=O)Nc1ccc(F)cn1)c1ccc2c(c1)CCCN2C(=O)C1(F)CC1 (single isomer, unassigned) [Example 62] | 524
7 | CC(NC(=O)c1ccc(F)cc1)c1ccc2c(n1)CCCN2C(=O)C1(C)CCCCO1 (stereo in doubt) [Example 139, 4-fluoro-N-(1-{5-[(2S)-2-methyloxane-2-carbonyl]-5,6,7,8-tetrahydro-1,5-naphthyridin-2-yl}ethyl)benzamide] | 348
8 | O=C(c1cnn(C2CC2)c1)N1CCCc2cc(C3(C(=O)Nc4ccc(F)cc4)CCC3)ccc21 [Example 113, 1-[1-(1-cyclopropyl-1H-pyrazole-4-carbonyl)-1,2,3,4-tetrahydroquinolin-6-yl]-N-(4-fluorophenyl)cyclobutane-1-carboxamide] | 65.8
9 | C[C@H](C(=O)Nc1ccc(F)cc1)c1ccc2c(c1)CCCN2C(=O)C1CN(C)CCO1 (stereo partly drawn) [Example 74, (2S)-N-(4-fluorophenyl)-2-[1-(4-methylmorpholine-2-carbonyl)-1,2,3,4-tetrahydroquinolin-6-yl]propanamide] | 460
10 | COC(=O)N1CCCc2nc(C3(NC(=O)c4ccc(Cl)cc4)CCC3)ccc21 [Example 219, methyl 6-{1-[(4-chlorobenzene-1-carbonyl)amino]cyclobutyl}-3,4-dihydro-1,5-naphthyridine-1(2H)-carboxylate] | 9.9
11 | O=C(NC1(c2ccc3c(n2)CCCN3C(=O)[C@H]2CCCO2)CC1)c1ccc(F)cc1 [Example 176, 4-fluoro-N-(1-{5-[(2R)-oxolane-2-carbonyl]-5,6,7,8-tetrahydro-1,5-naphthyridin-2-yl}cyclopropyl)benzamide] | 9.7
12 | CC(NC(=O)c1ccc(F)cc1)c1ccc2c(n1)C(O)CCN2C(=O)C1CC1 (single isomer, unassigned) [Example 197, N-(1-(5-(cyclopropanecarbonyl)-8-hydroxy-5,6,7,8-tetrahydro-1,5-naphthyridin-2-yl)ethyl)-4-fluorobenzamide] | 290
13 | COCCOCC(=O)N1CCCc2cc([C@H](C)C(=O)Nc3ccc(F)cc3)ccc21 [Example 77, (2S)-N-(4-fluorophenyl)-2-{1-[(2-methoxyethoxy)acetyl]-1,2,3,4-tetrahydroquinolin-6-yl}propanamide] | 1240
14 | C[C@@H](C(=O)Nc1ccc(F)cn1)c1ccc2c(c1)CCCN2C(=O)C1CC1 (single isomer, unassigned) [Example 60] | 124
15 | O=C(c1cc(C(F)(F)F)n[nH]1)N1CCCc2cc(C3(C(=O)Nc4ccc(F)cc4)CCC3)ccc21 [Example 116, N-(4-fluorophenyl)-1-{1-[3-(trifluoromethyl)-1H-pyrazole-5-carbonyl]-1,2,3,4-tetrahydroquinolin-6-yl}cyclobutane-1-carboxamide] | 51.4
16 | CO[C@H]1C[C@H](C(=O)N2CCCc3cc([C@H](C)C(=O)Nc4ccc(F)cc4)ccc32)C1 [Example 86, (2S)-N-(4-fluorophenyl)-2-[1-(trans-3-methoxycyclobutane-1-carbonyl)-1,2,3,4-tetrahydroquinolin-6-yl]propanamide] | 17.6
17 | O=C(NC1(c2ccc3c(n2)CCCN3c2ccccn2)CC1)c1ccc(F)cc1 [Example 247, 4-fluoro-N-(1-(5-(pyridin-2-yl)-5,6,7,8-tetrahydro-1,5-naphthyridin-2-yl)cyclopropyl)benzamide] | 13.9
18 | C[C@H](C(=O)Nc1ccc(F)cc1)c1ccc2c(c1)CCCN2C(=O)CC(C)(C)O [Example 71, (2S)-N-(4-fluorophenyl)-2-[1-(3-hydroxy-3-methylbutanoyl)-1,2,3,4-tetrahydroquinolin-6-yl]propanamide] | 30.3
19 | CC(C)(O)c1cccc(N2CCCc3nc(C4(NC(=O)c5ccc(F)cc5)CC4)ccc32)n1 [Example 297, 4-fluoro-N-(1-(5-(6-(2-hydroxypropan-2-yl)pyridin-2-yl)-5,6,7,8-tetrahydro-1,5-naphthyridin-2-yl)cyclopropyl)benzamide] | 46.4

Other lines, results leading:

Row | IC50 [nM] | Structure (SMILES)
20 | 7 | C[C@H](C(=O)Nc1ccc(F)cc1)c1ccc2c(c1)CCCN2C(=O)CC(C)(C)C [Example 90, (2S)-2-[1-(3,3-dimethylbutanoyl)-1,2,3,4-tetrahydroquinolin-6-yl]-N-(4-fluorophenyl)propanamide]
21 | 7 | CC(NC(=O)c1ccc(F)cc1)c1ccc2c(n1)CCCN2C(=O)c1ccccn1 (stereo not drawn) [Example 280, 2-(1-(4-fluorobenzamido)ethyl)-5-picolinoyl-5,6,7,8-tetrahydro-1,5-naphthyridin-1-ium 2,2,2-trifluoroacetate]
22 | 4.1 | O=C(c1cocn1)N1CCCc2cc(C3(C(=O)Nc4ccc(F)cn4)CCC3)ccc21 [Example 121, N-(5-fluoropyridin-2-yl)-1-[1-(1,3-oxazole-4-carbonyl)-1,2,3,4-tetrahydroquinolin-6-yl]cyclobutane-1-carboxamide]
23 | 3.9 | Cc1cc(C(=O)N2CCCc3cc(C(C)C(=O)Nc4ccc(F)cc4)ccc32)no1 (stereo not drawn) [Example 46, N-(4-fluorophenyl)-2-[1-(5-methyl-1,2-oxazole-3-carbonyl)-1,2,3,4-tetrahydroquinolin-6-yl]propanamide]
24 | 3.3 | CCN(C(=O)N1CCc2cc(C3(C(=O)Nc4ccc(Cl)cc4)CCC3)ccc21)C(C)C [Example 274, 5-{1-[(4-chlorophenyl)carbamoyl]cyclobutyl}-N-ethyl-N-(propan-2-yl)-2,3-dihydro-1H-indole-1-carboxamide]
25 | 2.4 | O=C(NC1(c2ccc3c(n2)CCCN3C(=O)C2CCCCO2)CC1)c1ccc(F)cc1 (stereo not drawn) [Example 170, 4-fluoro-N-{1-[5-(oxane-2-carbonyl)-5,6,7,8-tetrahydro-1,5-naphthyridin-2-yl]cyclopropyl}benzamide]
26 | 2.2 | O=C(c1cccc(Cl)c1)N1CCCc2nc(C3(C(=O)Nc4ccc(F)cc4)COC3)ccc21 [Example 267, 3-(5-(3-chlorobenzoyl)-5,6,7,8-tetrahydro-1,5-naphthyridin-2-yl)-N-(4-fluorophenyl)oxetane-3-carboxamide]
27 | 2.2 | CCOC(=O)N1CCCc2cc(C3(C(=O)Nc4ccc(F)cn4)CCC3)ccc21 [Example 211, ethyl 6-{1-[(5-fluoropyridin-2-yl)carbamoyl]-cyclobutyl}-3,4-dihydroquinoline-1(2H)-carboxylate]
28 | 1.7 | CC(NC(=O)c1ccc(F)cc1)c1ccc2c(n1)CCCN2C(=O)c1cccc(C#N)c1 (stereo not drawn) [Example 147, N-{1-[5-(3-cyanobenzene-1-carbonyl)-5,6,7,8-tetrahydro-1,5-naphthyridin-2-yl]ethyl}-4-fluorobenzamide]
29 | 1.6 | O=C(C1CCCCO1)N1CCCc2nc(C3(C(=O)Nc4ccc(F)cc4)CCC3)ccc21 (single isomer, unassigned) [Example 178, N-(4-fluorophenyl)-1-[5-(oxane-2-carbonyl)-5,6,7,8-tetrahydro-1,5-naphthyridin-2-yl]cyclobutane-1-carboxamide]
30 | 1.5 | CC(C(=O)Nc1ccc(F)cc1)c1ccc2c(n1)CCCN2C(=O)C1CCCCO1 (single isomer, unassigned) [Example 159, N-(4-fluorophenyl)-2-[5-(oxane-2-carbonyl)-5,6,7,8-tetrahydro-1,5-naphthyridin-2-yl]propanamide]
31 | 1.49 | O=C(Nc1ccc(F)cc1)C1(c2ccc3c(n2)CCCN3c2ccnc(C(F)(F)F)n2)CCC1 [Example 407, N-(4-fluorophenyl)-1-(5-(2-(trifluoromethyl)pyrimidin-4-yl)-5,6,7,8-tetrahydro-1,5-naphthyridin-2-yl)cyclobutane-1-carboxamide]

Same assay, conditions: read-out: Hela IC50

Row | IC50 [nM] | Structure (SMILES)
32 | 19.8 | CC(NC(=O)c1ccc(F)cc1)c1ccc2c(n1)CCCN2C(=O)OC(C)c1cccnc1 (stereo not drawn) [Example 318, 1-(pyridin-3-yl)ethyl 6-(1-(4-fluorobenzamido)ethyl)-3,4-dihydro-1,5-naphthyridine-1(2H)-carboxylate]
33 | 45.3 | CC(NC(=O)c1ccc(F)cc1)c1ccc2c(n1)CCCN2C(=O)OCC1CCO1 (stereo not drawn) [Example 313, oxetan-2-ylmethyl 6-(1-(4-fluorobenzamido)ethyl)-3,4-dihydro-1,5-naphthyridine-1(2H)-carboxylate]
34 | 13 | COc1cc(N2CCCc3nc(C(C)NC(=O)c4ccc(F)cc4)ccc32)ncn1 (stereo not drawn) [Example 379, 4-fluoro-N-(1-(5-(6-methoxypyrimidin-4-yl)-5,6,7,8-tetrahydro-1,5-naphthyridin-2-yl)ethyl)benzamide]
35 | 8.35 | CC(NC(=O)c1ccc(Cl)cc1)c1ccc2c(n1)CCCN2c1nc(Cl)nc2c1CCCC2 (stereo not drawn) [Example 361, 5-(2-chloro-5,6,7,8-tetrahydroquinazolin-4-yl)-2-(1-(4-chlorobenzamido)ethyl)-5,6,7,8-tetrahydro-1,5-naphthyridin-1-ium 2,2,2-trifluoroacetate]
36 | 25 | Cc1nc(N2CCCc3nc(C(C)NC(=O)c4ccc(Cl)cc4)ccc32)c2cc(Cl)ccc2n1 (stereo not drawn) [Example 359, 5-(6-chloro-2-methylquinazolin-4-yl)-2-(1-(4-chlorobenzamido)ethyl)-5,6,7,8-tetrahydro-1,5-naphthyridin-1-ium 2,2,2-trifluoroacetate]
